Columns and labels:
Type in all cases: cell-based
IL8 [1] = experiment: IL8 gene expression in human squamous carcinoma cells (QRT-PCR); conditions: for Effect on IL8 expression (48 h)vs control: vs untreated control
[2] = test system: Ex vivo human skin explant; experiment: Cell proliferation (Ki67 staining) in ex vivo human skin explant; conditions: 10^−3 M topical, Control 90, Vehicle 45
Experimental: (§1) Ex vivo skin explants were prepared from skin abdominal biopsy after plastic surgery. Skin explants were maintained in culture medium at 37° C. in a water saturated atmosphere for 5 days. Compounds G was diluted in a mixture of propylene glycol (30%) and ethanol (70%) at 10^-3 M and topically applied on the explant surface. After 48 hours, half of the explants were taken and epidermal mRNA was extracted and expression of HB-EGF and IL8 genes was measured by Quantitative real time PCR (QRT-PCR). Explants were also fixed and slices were prepared and mounted on glass slides to be examined. Cell proliferation was also assessed by staining the cells with an antibody directed to the Ki67 protein and then counting the number of positive cell per mm (Table 4).

IL8 [3] = experiment: IL8 gene expression in ex vivo human skin explant (QRT-PCR)
Experimental: as §1, with “Compounds G was diluted in a mixture of propylene glycol (30%) and ethanol (70%) at 10^-3 M and topically applied on the explant surface.” left out

HB-EGF [4] = experiment: HB-EGF gene expression in ex vivo human skin explant (QRT-PCR)
Experimental: as §1, with “Compounds G was diluted in a mixture of propylene glycol (30%) and ethanol (70%) at 10^-3 M and topically applied on the explant surface.” left out

HB-EGF [5] = experiment: HB-EGF gene expression in human squamous carcinoma cells (QRT-PCR); conditions: vs untreated control
Experimental: Compound G was tested on Human Squamous Carcinoma Cells for its ability to induce epidermal proliferation factor HB-EGF. For this assay, Human squamous carcinoma cells were seeded in 25 cm^2 flask and cultivated until 80% of cell confluence was reached. Test compounds were added to the culture medium and cells were incubated again 48 hours. At the end of the incubation cells were trypsinized and pelleted. […] was extracted and gene expression was measured with quantitative real time Polymerase Chain Reaction (QRT-PCR) using actin gene expression as internal standard. Variation of gene expression is expressed in percent versus the untreated control. Effect of Compound G on HB-EGF gene expression, assessed by real time QPCR was +187% and +370% vs. control at doses of 10^−6 and 10^−5 M respectively.

## O=C(O)COc1ccc(/N=N/c2c(O)ccc3cc(Br)ccc23)cc1 [Compound G]
IL8 [1]; 10^−5 M
  Effect on IL8 expression (48 h)vs control: 44%
IL8 [1]; 10^−6 M
  Effect on IL8 expression (48 h)vs control: 10%
IL8 [1]; "at this dose" (10^−6 and 10^−5 M), 48 h
  IL8 expression induction (in words): did not significantly induce IL8 expression
[2]
  Cell proliferation (Ki67 + cells): 150 positive cell per mm
IL8 [3]; 10^−3 M topical
  Effect on IL8 expression (48h)vs vehicle: 76%
IL8 [3]; 10^−4 M topical
  Effect on IL8 expression (48h)vs vehicle: 65%
HB-EGF [4]; 10^−3 M topical
  Effect on HB EGF expression (48 h) vs vehicle: 288%
HB-EGF [4]; 10^−4 M topical
  Effect on HB EGF expression (48 h) vs vehicle: 159%
HB-EGF [5]; 10^−5 M
  Effect on HB EGF expression vs control(48 h): 370%
HB-EGF [5]; 10^−5 M, listed as compound G
  Effect on HB EGF expression vs control(48 h): 370%
HB-EGF [5]; 10^−6 M
  Effect on HB EGF expression vs control(48 h): 187%
HB-EGF [5]; 10^−6 M, listed as compound G
  Effect on HB EGF expression vs control(48 h): 187%
